What is called solubility is the dissolved amount per volume that the medium holds. Lower therefore signals little dissolved substance.

Data set [1] in a line: Solid stability (UPLC; XRPD, DSC, TGA). Format: physicochemical. The settings on record: 5 weeks at 25° C./60% RH, 40° C./75% RH, 40° C./ambient or 60° C./ambient. Here is the method: Drug substance was stored at 25° C./60% RH, 40° C./75% RH, 40° C./ambient or 60° C./ambient conditions. Chemical stability was determined at each time point by dissolving the drug substance in 50% acetonitrile water for ultra performance liquid chromatography (“UPLC”) analysis. Physical stability was determined by analyzing the solid by XRPD, DSC and TGA.

Data set [2] is described as follows: Solubility in water (excess solid, UPLC-UV). In kind it is physicochemical. Conditions: thermodynamic from solid, room temperature. An excerpt:
Suspensions were filtered.

Converted amounts (≈) assume the structure as drawn.

Consider `CS(=O)(=O)c1cncc(C(=O)N2[C@@H](C(=O)N[C@@H](c3cc(F)c(Cl)cc3F)C3CC3)C[C@H]3C[C@H]32)c1` [Form I, (1R,3R,5R)-N-((R)-(4-chloro-2,5-difluorophenyl)(cyclopropyl)methyl)-2-(5-(methylsulfonyl)nicotinoyl)-2-azabicyclo[3.1.0]hexane-3-carboxamide], for which the “Physical and chemical stability on storage” value in data set [1] was “physically and chemically stable”. Moreover, the solubility in data set [2] was 9 µg/mL (≈ 17.6 µM).

The values above are taken from US20220185791A1, “POLYMORPHS OF A CARDIAC TROPONIN ACTIVATOR” (Amgen Inc., priority 2019, published 2022).
